Key:
[1] = biological target: T1, Inhibitor of nuclear factor kappa-B kinase subunit beta (Homo sapiens) (UniProt O14920); assay: Inhibition of IKKbeta (unknown origin) transfected in human HeLa cells assessed as inhibition of TPA-induced NF-kappaB activation at 10 uM pre-incubated with compound for 1 hr followed by TPA addition after 8 hrs by luciferase reporter gene assay; type: cell-based
T1 sequence (whole entry): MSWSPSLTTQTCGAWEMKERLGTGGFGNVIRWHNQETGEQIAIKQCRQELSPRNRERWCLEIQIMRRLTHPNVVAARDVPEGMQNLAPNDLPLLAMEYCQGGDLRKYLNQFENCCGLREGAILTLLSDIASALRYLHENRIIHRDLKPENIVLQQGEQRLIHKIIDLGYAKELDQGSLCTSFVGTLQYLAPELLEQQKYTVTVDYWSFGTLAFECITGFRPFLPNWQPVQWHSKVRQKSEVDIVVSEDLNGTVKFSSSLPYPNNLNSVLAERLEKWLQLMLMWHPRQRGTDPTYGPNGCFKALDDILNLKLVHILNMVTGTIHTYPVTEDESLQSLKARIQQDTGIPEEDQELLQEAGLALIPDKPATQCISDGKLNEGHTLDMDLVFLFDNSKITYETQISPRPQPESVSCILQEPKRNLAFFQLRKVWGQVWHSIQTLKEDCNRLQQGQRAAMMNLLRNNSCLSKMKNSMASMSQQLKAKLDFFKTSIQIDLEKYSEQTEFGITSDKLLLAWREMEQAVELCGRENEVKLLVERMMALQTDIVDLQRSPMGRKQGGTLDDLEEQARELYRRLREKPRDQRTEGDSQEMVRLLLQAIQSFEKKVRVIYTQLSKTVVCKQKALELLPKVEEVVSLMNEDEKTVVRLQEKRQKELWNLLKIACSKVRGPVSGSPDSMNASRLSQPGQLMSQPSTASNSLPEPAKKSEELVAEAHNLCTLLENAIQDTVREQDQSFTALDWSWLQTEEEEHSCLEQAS

[2] = biological target: Aurora kinase A (Homo sapiens) (UniProt O14965); assay: Inhibition of Aurora A (unknown origin) at 10 uM
[3] = biological target: Serine/threonine-protein kinase B-raf (Homo sapiens) (UniProt P15056); assay: Inhibition of BRAF (unknown origin) at 10 uM
[4] = biological target: Proto-oncogene tyrosine-protein kinase Src (Homo sapiens) (UniProt P12931); assay: Inhibition of c-Src (unknown origin) at 10 uM
[5] = biological target: Cyclin-dependent kinase 1/cyclin B1 (Homo sapiens) (UniProt P06493+P14635); assay: Inhibition of CDK1/cyclin B (unknown origin) at 10 uM; type: protein-complex assay
[6] = biological target: CDK2/Cyclin A2 (Homo sapiens) (UniProt P24941+P20248); assay: Inhibition of CDK2/cyclin A (unknown origin) at 10 uM; type: protein-complex assay
[7] = biological target: CDK6/cyclin D1 (Homo sapiens) (UniProt P24385+Q00534); assay: Inhibition of CDK6/cyclin D1 (unknown origin) at 10 uM; type: protein-complex assay
[8] = biological target: Cyclin-dependent kinase 7/ cyclin H (Homo sapiens) (UniProt P51946+P50613); assay: Inhibition of CDK7/cyclin H (unknown origin) at 10 uM; type: protein-complex assay
[9] = biological target: Serine/threonine-protein kinase Chk1 (Homo sapiens) (UniProt O14757); assay: Inhibition of CHK1 (unknown origin) at 10 uM
[10] = biological target: Casein kinase I isoform delta (Homo sapiens) (UniProt P48730); assay: Inhibition of CK1delta (unknown origin) at 10 uM
[11] = biological target: Ephrin type-A receptor 2 (Homo sapiens) (UniProt P29317); assay: Inhibition of EPHA2 (unknown origin) at 10 uM
[12] = biological target: Glycogen synthase kinase-3 beta (Homo sapiens) (UniProt P49841); assay: Inhibition of GSK3beta (unknown origin) at 10 uM
[13] = biological target: Inhibitor of nuclear factor kappa-B kinase subunit alpha (Homo sapiens) (UniProt O15111); assay: Inhibition of IKKalpha (unknown origin) at 10 uM
[14] = biological target: Mitogen-activated protein kinase 8 (Homo sapiens) (UniProt P45983); assay: Inhibition of JNK1 (unknown origin) at 10 uM
[15] = biological target: Tyrosine-protein kinase Lyn (Homo sapiens) (UniProt P07948); assay: Inhibition of LYN (unknown origin) at 10 uM
[16] = biological target: MAP kinase-activated protein kinase 2 (Homo sapiens) (UniProt P49137); assay: Inhibition of MAPKAPK2 (unknown origin) at 10 uM
[17] = biological target: MAP kinase-activated protein kinase 5 (Homo sapiens) (UniProt Q8IW41); assay: Inhibition of MAPKAPK5 (unknown origin) at 10 uM
[18] = biological target: MAP kinase-interacting serine/threonine-protein kinase 2 (Homo sapiens) (UniProt Q9HBH9); assay: Inhibition of MNK2 (unknown origin) at 10 uM
[19] = biological target: Mitogen-activated protein kinase 14 (Homo sapiens) (UniProt Q16539); assay: Inhibition of MAPK14 (unknown origin) at 10 uM
[20] = biological target: 3-phosphoinositide-dependent protein kinase 1 (Homo sapiens) (UniProt O15530); assay: Inhibition of PDK1 (unknown origin) at 10 uM
Homo sapiens [21] = organism: Homo sapiens; assay: Inhibition of PKA (unknown origin) at 10 uM
[22] = biological target: Protein kinase C alpha type (Homo sapiens) (UniProt P17252); assay: Inhibition of PKCalpha (unknown origin) at 10 uM
[23] = biological target: Rho-associated protein kinase 1 (Homo sapiens) (UniProt Q13464); assay: Inhibition of ROCK1 (unknown origin) at 10 uM
Homo sapiens [24] = organism: Homo sapiens; assay: Inhibition of TPKA (unknown origin) at 10 uM
Mus musculus [25] = assay: Toxicity in female ICR mouse assessed as average body weight at 2000 mg/kg, po administered for 2 days measured 3 hrs post last dose (reference value: 18.9 +/- 0.9 g); type: organism-based; settings: in vivo
Mus musculus [26] = assay: Toxicity in female ICR mouse assessed as average body weight at 2000 mg/kg, po administered for 3 days measured 3 hrs post last dose (reference value: 18.9 +/- 0.9 g); type: organism-based; settings: in vivo
Mus musculus [27] = assay: Toxicity in male ICR mouse assessed as average body weight at 2000 mg/kg, po administered for 3 days measured 3 hrs post last dose (reference value: 20.3 +/- 0.4 g); type: organism-based; settings: in vivo
Mus musculus [28] = assay: Toxicity in male ICR mouse assessed as average body weight at 2000 mg/kg, po administered for 10 days measured 3 hrs post last dose (reference value: 20.3 +/- 0.4 g); type: organism-based; settings: in vivo
[29] = Cmax in Sprague-Dawley rat at 1 mg/kg, iv after 0.25 to 24 hrs; type: ADME, organism-based; set-up: dose 1 mg/kg, route intravenous; settings: in vivo
Rattus norvegicus = assay: Volume of distribution in Sprague-Dawley rat at 2 mg/kg, po after 0.25 to 24 hrs; type: ADME, organism-based; settings: in vivo
Mus musculus [30] = assay: Toxicity in ICR mouse assessed as mortality at 2000 mg/kg, po administered for 14 days measured on day 15; type: organism-based; settings: in vivo, 336 h
[31] = biological target: Mitogen-activated protein kinase 1 (Homo sapiens) (UniProt P28482); assay: Inhibition of ERK2/MAPK2 (unknown origin) at 10 uM
Sequence of Mitogen-activated protein kinase 1 (Homo sapiens) (P28482 whole entry, looked up): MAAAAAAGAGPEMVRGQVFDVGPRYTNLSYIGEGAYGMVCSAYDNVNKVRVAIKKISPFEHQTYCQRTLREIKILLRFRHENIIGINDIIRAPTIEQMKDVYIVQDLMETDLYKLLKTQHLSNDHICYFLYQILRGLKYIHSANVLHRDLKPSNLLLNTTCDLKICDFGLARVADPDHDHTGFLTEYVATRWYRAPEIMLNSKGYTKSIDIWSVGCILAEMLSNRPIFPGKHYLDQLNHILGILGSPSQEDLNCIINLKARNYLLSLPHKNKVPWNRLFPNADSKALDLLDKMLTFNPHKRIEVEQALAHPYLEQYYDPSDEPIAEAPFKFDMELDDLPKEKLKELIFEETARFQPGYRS

Sequence of Ephrin type-A receptor 2 (Homo sapiens) (P29317 whole entry): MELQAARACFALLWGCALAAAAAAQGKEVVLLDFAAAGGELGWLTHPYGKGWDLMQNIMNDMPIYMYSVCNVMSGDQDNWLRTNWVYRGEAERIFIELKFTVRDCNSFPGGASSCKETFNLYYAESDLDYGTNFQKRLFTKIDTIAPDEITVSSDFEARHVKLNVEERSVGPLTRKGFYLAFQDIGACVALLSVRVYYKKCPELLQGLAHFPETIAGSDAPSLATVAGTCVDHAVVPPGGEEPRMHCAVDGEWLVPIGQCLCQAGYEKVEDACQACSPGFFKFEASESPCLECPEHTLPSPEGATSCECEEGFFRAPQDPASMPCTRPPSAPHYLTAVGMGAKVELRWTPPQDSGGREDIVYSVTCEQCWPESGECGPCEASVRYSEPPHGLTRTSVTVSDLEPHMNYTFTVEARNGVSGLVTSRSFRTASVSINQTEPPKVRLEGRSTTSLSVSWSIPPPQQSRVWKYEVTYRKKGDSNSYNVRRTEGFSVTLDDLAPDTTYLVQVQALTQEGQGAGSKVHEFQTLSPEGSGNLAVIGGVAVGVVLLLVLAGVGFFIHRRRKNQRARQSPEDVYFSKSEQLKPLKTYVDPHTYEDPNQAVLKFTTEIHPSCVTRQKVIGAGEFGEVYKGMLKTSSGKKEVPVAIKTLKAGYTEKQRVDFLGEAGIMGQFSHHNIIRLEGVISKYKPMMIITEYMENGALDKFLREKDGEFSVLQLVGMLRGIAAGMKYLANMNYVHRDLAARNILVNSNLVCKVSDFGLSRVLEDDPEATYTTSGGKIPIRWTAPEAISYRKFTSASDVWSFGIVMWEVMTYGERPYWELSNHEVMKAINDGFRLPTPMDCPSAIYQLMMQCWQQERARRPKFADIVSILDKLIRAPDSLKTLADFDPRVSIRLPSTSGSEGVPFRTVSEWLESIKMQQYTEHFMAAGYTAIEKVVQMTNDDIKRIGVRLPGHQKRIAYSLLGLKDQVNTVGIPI
Sequence of MAP kinase-activated protein kinase 5 (Homo sapiens) (Q8IW41 whole entry): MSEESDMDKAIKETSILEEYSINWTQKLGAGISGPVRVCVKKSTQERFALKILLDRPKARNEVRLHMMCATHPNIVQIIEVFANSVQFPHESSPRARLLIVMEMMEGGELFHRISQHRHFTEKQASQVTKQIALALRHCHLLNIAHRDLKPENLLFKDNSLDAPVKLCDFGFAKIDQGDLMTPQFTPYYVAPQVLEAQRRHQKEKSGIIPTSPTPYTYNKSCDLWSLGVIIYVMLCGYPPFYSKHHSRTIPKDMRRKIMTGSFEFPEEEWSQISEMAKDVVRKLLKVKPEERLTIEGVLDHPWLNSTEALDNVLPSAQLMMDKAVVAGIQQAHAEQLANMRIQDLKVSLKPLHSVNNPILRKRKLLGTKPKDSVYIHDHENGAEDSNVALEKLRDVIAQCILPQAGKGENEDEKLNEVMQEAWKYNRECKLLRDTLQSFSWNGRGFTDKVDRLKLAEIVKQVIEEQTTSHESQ
Sequence of Casein kinase I isoform delta (Homo sapiens) (P48730 whole entry, looked up, canonical isoform): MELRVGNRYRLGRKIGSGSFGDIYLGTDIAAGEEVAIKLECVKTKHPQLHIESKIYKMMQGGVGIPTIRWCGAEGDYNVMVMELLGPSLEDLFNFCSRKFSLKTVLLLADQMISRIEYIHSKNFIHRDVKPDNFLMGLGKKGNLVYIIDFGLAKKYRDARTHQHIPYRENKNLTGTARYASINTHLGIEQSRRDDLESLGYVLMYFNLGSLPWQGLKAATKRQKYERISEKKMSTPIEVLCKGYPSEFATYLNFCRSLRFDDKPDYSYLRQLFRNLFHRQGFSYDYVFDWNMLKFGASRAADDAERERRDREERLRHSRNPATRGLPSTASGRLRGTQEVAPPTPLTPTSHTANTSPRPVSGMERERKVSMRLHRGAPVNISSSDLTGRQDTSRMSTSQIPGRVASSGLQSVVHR
Sequence of MAP kinase-interacting serine/threonine-protein kinase 2 (Homo sapiens) (Q9HBH9 whole entry, looked up): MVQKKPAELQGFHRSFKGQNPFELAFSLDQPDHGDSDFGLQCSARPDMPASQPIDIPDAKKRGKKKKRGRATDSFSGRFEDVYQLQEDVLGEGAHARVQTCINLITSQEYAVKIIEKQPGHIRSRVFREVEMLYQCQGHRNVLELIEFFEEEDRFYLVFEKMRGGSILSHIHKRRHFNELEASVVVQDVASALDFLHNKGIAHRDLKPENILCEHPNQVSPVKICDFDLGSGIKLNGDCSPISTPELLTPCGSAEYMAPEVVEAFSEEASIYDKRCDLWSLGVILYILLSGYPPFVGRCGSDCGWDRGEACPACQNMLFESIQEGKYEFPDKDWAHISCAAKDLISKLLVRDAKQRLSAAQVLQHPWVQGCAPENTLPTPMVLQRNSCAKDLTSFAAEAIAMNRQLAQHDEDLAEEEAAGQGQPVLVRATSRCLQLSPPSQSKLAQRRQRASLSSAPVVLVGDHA
Sequence of Aurora kinase A (Homo sapiens) (O14965 whole entry): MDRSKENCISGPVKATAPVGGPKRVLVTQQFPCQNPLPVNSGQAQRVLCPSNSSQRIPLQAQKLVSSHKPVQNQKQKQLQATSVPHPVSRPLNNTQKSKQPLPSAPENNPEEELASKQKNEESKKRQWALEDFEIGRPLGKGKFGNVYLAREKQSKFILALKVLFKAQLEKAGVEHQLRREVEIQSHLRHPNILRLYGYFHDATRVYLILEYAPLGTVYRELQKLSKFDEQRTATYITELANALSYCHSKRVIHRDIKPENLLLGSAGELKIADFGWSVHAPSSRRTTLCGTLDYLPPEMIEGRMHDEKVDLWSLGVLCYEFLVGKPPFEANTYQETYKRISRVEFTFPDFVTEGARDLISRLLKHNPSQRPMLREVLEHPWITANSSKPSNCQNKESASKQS
Sequence of 3-phosphoinositide-dependent protein kinase 1 (Homo sapiens) (O15530 whole entry): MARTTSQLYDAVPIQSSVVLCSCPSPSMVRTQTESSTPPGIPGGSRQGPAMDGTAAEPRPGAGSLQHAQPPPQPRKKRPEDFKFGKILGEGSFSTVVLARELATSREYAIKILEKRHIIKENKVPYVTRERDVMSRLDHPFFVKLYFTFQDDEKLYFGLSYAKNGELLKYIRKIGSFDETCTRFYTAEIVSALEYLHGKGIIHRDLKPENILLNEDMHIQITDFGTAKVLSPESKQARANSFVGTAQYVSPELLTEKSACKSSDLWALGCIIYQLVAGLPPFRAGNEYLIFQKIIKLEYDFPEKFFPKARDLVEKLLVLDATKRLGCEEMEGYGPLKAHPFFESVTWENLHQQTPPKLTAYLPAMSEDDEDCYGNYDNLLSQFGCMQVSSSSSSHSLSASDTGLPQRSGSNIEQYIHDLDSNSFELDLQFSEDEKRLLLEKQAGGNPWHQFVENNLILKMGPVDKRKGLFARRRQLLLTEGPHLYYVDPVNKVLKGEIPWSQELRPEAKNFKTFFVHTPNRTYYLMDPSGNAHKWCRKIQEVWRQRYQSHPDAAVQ
Sequence of Proto-oncogene tyrosine-protein kinase Src (Homo sapiens) (P12931 2-536 limits assumed): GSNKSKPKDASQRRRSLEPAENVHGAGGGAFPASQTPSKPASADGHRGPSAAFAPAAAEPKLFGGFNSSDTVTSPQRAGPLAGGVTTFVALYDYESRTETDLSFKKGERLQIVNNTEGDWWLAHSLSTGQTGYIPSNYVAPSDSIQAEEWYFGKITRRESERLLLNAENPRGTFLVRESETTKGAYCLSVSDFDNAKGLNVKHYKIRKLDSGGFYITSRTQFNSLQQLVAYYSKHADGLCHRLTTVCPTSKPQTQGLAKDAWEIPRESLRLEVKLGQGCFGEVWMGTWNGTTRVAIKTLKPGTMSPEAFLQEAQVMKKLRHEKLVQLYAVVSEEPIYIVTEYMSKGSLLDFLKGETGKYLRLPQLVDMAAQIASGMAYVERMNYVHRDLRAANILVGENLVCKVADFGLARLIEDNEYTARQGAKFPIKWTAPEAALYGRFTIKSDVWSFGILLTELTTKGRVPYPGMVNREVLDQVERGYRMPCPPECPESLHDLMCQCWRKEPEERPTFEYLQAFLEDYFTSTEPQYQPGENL
Sequence of Mitogen-activated protein kinase 14 (Homo sapiens) (Q16539 whole entry): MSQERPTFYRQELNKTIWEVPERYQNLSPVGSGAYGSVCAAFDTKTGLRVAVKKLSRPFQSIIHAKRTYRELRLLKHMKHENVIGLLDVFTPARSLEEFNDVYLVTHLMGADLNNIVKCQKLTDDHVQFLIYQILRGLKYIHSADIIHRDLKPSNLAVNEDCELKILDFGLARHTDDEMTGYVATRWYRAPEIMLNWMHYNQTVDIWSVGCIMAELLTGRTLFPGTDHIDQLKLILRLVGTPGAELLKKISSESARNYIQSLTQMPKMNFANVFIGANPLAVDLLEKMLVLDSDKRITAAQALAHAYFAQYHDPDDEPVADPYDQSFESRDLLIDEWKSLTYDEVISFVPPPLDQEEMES
Sequence of Mitogen-activated protein kinase 8 (Homo sapiens) (P45983 whole entry): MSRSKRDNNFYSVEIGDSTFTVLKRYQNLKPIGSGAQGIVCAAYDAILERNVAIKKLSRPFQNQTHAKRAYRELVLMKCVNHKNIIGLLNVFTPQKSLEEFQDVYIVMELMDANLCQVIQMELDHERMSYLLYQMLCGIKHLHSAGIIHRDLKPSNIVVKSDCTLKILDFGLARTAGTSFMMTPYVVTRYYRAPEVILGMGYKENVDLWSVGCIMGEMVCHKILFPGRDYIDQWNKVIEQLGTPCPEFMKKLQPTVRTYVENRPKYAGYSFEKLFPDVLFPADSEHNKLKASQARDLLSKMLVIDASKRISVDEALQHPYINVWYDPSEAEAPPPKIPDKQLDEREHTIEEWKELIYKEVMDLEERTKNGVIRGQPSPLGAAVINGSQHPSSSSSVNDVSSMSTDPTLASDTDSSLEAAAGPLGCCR

CN1CCN(CCCOc2ccc(N3C(=O)/C(=C/c4ccc(Oc5ccc(F)cc5)cc4)SC3=S)cc2)CC1
inhibition [1]: 84.8%
inhibition [2]: 0%
inhibition [3]: 0%
inhibition [4]: 14%
inhibition [5]: 3.1%
inhibition [6]: 6.4%
inhibition [7]: 12.9%
inhibition [8]: 2.5%
inhibition [9]: 0%
inhibition [10]: 0%
inhibition [11]: 29%
inhibition [12]: 0%
inhibition [13]: 0%
inhibition [14]: 2%
inhibition [15]: 27.8%
inhibition [16]: 42%
inhibition [17]: 5.2%
inhibition [18]: 33.1%
inhibition [19]: 14.8%
inhibition [20]: 0%
inhibition (Homo sapiens [21]): 0%
inhibition [22]: 18.4%
inhibition [23]: 61.1%
inhibition (Homo sapiens [24]): 24.7%
Activity (Mus musculus [25]): 21.7 g
Activity (Mus musculus [26]): 23.3 g
Activity (Mus musculus [27]): 23.2 g
Activity (Mus musculus [28]): 27.4 g
Cmax [29]: 94 ng/mL
Vd (Rattus norvegicus): 50.58 L/kg
Activity (Mus musculus [30]): Non-toxic
inhibition [31]: 6.8%
